Test results published in patent US12576059B2, “Methods and compositions for treatment of inflammatory disease” (priority 2021, dated 2026).

What was measured:
[1] = test system: LPS induced acute lung inflammation; assay: Example 1: LPS induced acute lung inflammation, interalveolar septa distance; assay type: in vivo, mice
Excerpt: LPS administration is known to promote inflammation through various mechanisms including secretion of pro-inflammatory cytokines, eicosanoids and induction of ROS. This example employed LPS to ascertain the extent of inflammation arising from ROS induced oxidation of H-AA versus D-AA in the lungs of mice. Specifically, four groups of mice were used. The first group was control mice treated with H-LA control mice. The second group of mice received a 6-week course of D-LA. It is understood that in vivo conversion of a portion of both H-LA and D-LA occurs to provide for AA and 13,13-D2-AA respectively. The third group of mice received a 6-week course of H-AA. The fourth group of mice received a 6-week course of D-AA. All groups then received a single intranasal administration of LPS to induce acute lung inflammation. The degree of the inflammatory response was based on the interalveolar septa distance where the larger the distance of the septa, the greater the degree of inflammation. The animals were sacrificed and the interalveolar septa distance was measured. Table 1 provides an average degree of spatial distance for the interalveolar septa for the results of all groups.

[2] = test system: LPS induced acute lung inflammation; assay: Example 2: LPS induced inflammation, H-AA versus D-AA, male and female mice; assay type: in vivo; details: for Interalveolar space / Interalveolar surface area: 6-week course, then single intranasal LPS; for inflammation in the lungs (in words): male and female mice, after LPS
Description: LPS administration was conducted as per Example 1 above except that four groups of mice were used. The first two groups (1 and 2) were control mice (male and female). The next two groups (3 and 4) of mice received a 6-week course of H-AA (male and female). Finally, the last two groups (5 and 6) of mice received a 6-week course of D6-AA (second group). Groups 3, 4, 5 and 6 then received a single intranasal administration of LPS to induce acute lung inflammation. The degree of the inflammatory response was determined per Example 1. Next, the height and distance of the interalveolar septa was determined to provide for the surface area of the inflammation.

[3] = design: species or system mice; details: in vivo
Description: Male and Female BALB/c and C57BL/6 mice were provided with standard environmental conditions i.e., 22±1° C., 55±5% humidity and 12 h light/dark cycle with free food and water access. At the age of six weeks, animals were split into 8 groups (n=160 total, 20 of each gender) and were continuously fed ad libitum on the diet containing either H-AA or D-AA for 2, 4, 6 or 8 weeks at the daily rate of ca. 5 g of diet per mouse for the duration of the study. The other two groups of animals (n=40, 20 of each gender) received neither PUFA-enriched diets nor LPS served as controls. The body weight and food intake were measured once a week. […]
The relative ratio of H-AA to D-AA was determined by gas chromatography (GC) coupled to chemical ionization mass spectrometry. […]
As the first step to test this hypothesis, we studied the metabolic effect of such a dietary supplementation. We determined the actual content of D-AA and then performed a washout experiment after a long period of supplementation by switching from D-AA to H-AA diet by MS analysis of several mouse tissues in the AA-diet fed mice. […]

## [2H]C([2H])(/C=C\CCCCC)/C=C\C([2H])([2H])/C=C\C([2H])([2H])/C=C\CCCC(=O)O [D-AA, 7,7,10,10,13,13-D6-arachidonic acid]
[1]; 6-week course, then single intranasal LPS
  Interalveolar space (average spatial distance for the interalveolar septa): 4.1 μm
[1]; D-LA relative to H-LA, comparator for D-AA not stated
  reduction in the spatial distance for the interalveolar septa: ~60%
[2]; female mice
  Interalveolar space: ~3.5 μm
  Interalveolar surface area: ~90 μm^2
[2]
  inflammation in the lungs (in words): statistically significant reduction in inflammation
[2]; listed as D-6 AA
  inflammation in the lungs (in words): less inflammation in the lungs
[2]; male mice
  Interalveolar space: ~5.0 μm
  Interalveolar surface area: ~190 μm^2
[3]; both, BALB/c and C57BL/6, mouse, 12 weeks
  incorporation of the deuterated form: more than 60%
[3]; mouse
  washout with H-AA feeding: more rapid than brain
